Data reported in patent publication US20250101063A1, “POLYPEPTIDE COMPOUND AND USE THEREOF IN TREATMENT OF ENTERITIS” (Sichuan Gooddoctor Panxi Pharmaceutical Co., Ltd., priority 2022, published 2025).
Where no end group is shown, it is not given here. [ ]: non-standard residue; d: D form.

System: zebrafish model of intestinal mucosal injury
Assay: Efficacy in relieving colitis: intestinal lumen area in TNBS-treated zebrafish
Type: in vivo
Parameters: key to Activity in relieving intestinal lumen dilatation: * p < 0.05; ** p < 0.01; *** p < 0.001; “−“ indicates absence of activity; “+” indicates some relief of intestinal lumen dilatation; “#” indicates that all the zebrafishes died in the experiment; “&” indicates that 13 zebrafishes died in the experiment
Conditions: 15.0 μg/mL (positive control), 2 days after TNBS, n = 10
Protocol: Experimental animals: Wild-type AB strain zebrafishes, bred by natural pair mating. Zebrafishes aged 3 days post fertilization (3 dpf). Zebrafishes were kept in fish farming water at 28° C. (water quality: 200 mg of instant sea salt in each 1L of reverse osmosis water, with the conductivity of 450-550 μS/cm; pH of 6.5-8.5; and hardness of 50-100 mg/L CaCO3), the experimental animal use license number is: SYXK (Zhe) 2012-0171, and the breeding management met the requirements of the international AAALAC certification (certification number: 001458).
(1) Grouping: Polypeptide group: prepared into a stock solution of 20.0 mg/mL with ultrapure water and stored at −20° C.
Positive control group: prednisone, as white powder, with batch number C10016501, Shanghai Macklin Biochemical Technology Co., Ltd., stored at 4° C.; prepared into a 15.0 mg/mL stock solution with DMSO, and stored in aliquots at −20° C.
Normal control group and model control group.
(2) Experimental method: 3 dpf wild-type AB strain zebrafishes were randomly selected and placed in a 6-well plate, with 30 zebrafishes in each well (experimental group). Except for the normal control group, all other experimental groups were given TNBS in water to establish the zebrafish model of intestinal mucosal injury. After 2 days of treatment at 28° C., TNBS was removed, and polypeptide compound in water (at concentrations shown in Table 4) was given respectively, and for the positive control, prednisone was 15.0 μg/mL. A normal control group (healthy group) and a model control group (intestinal mucosal injury group) were set up at the same time. The capacity of each well (experimental group) was 3 mL. After 2 days of treatment at 28° C., 10 zebrafishes were randomly selected from each experimental group and photographed under a dissecting microscope. NIS-Elements D 3.20 advanced image processing software was used to analyze and collect data, and the intestinal lumen area of the zebrafish was analyzed. The statistical analysis results of this indicator were used to evaluate the efficacy of the samples in relieving colitis. The statistics results were expressed as mean±SE. SPSS26.0 software was used for statistical analysis, and p<0.05 indicates statistically significant difference.
The concentration gradient of the test substances set in this experimental system was 250 μg/mL, 500 μg/mL, and 1000 μg/mL. […] When the concentration of the test substance was further increased for intervention, the death phenomenon of zebrafishes was found in the group; therefore, in the subsequent rounds of activity evaluation, each test polypeptide compound was uniformly administered at 1000 μg/mL for intervention.

Question: With `C[C@]12C=CC(=O)C=C1CC[C@@H]1[C@@H]2C(=O)C[C@@]2(C)[C@H]1CC[C@]2(O)C(=O)CO` [Prednisone, prednisone, reference compound] as the compound, how does the “Intestinal lumen area (pixels, mean ± SE)” value read?
Answer: 34929 ± 1913 pixels

Same assay, conditions: 250 μg/mL in water, 2 days after TNBS, n = 10

Question: “Arg-Lys-Val-Ala (RKVA; printed: Arg-Lys-Val-Ala) [Compound 15]” was tested. Which “Intestinal lumen area (pixels, mean ± SE)” value did it give?
Answer: 40719 ± 4647 pixels

Question: For KEPVPQAK [Compound 4], which “Intestinal lumen area (pixels, mean ± SE)” value is on record?
Answer: 48915 ± 2720 pixels

Same assay, conditions: 500 μg/mL in water, 2 days after TNBS, n = 10

Question: “Arg-Lys-Val-Ala (RKVA; printed: Arg-Lys-Val-Ala) [Compound 15]” was tested. Which “Intestinal lumen area (pixels, mean ± SE)” value did it give?
Answer: 31319 ± 5274 pixels

Question: With KEPVPQAK [Compound 4] as the compound, how does the “Intestinal lumen area (pixels, mean ± SE)” value read?
Answer: 40432 ± 3736 pixels

Same assay, conditions: 1000 μg/mL in water, 2 days after TNBS, n = 10

Question: Which “Intestinal lumen area (pixels, mean ± SE)” value does the source give for “Arg-Lys-Val-Ala (RKVA; printed: Arg-Lys-Val-Ala) [Compound 15]” here?
Answer: 30268 ± 2437 pixels

Question: How did the “Intestinal lumen area (pixels, mean ± SE)” value turn out when KEPVPQAK [Compound 4] was run?
Answer: 33664 ± 3758 pixels

Same assay, conditions: 1000 μg/mL; significance vs model control group of the same batch

Question: For AEPVPQAKPRKVAAQ [Compound 19], which “Activity in relieving intestinal lumen dilatation” value (“Activity” for short) is on record?
Answer: +

Question: How did the “Activity” value turn out when APVPQAK [Compound 46] was run?
Answer: +

Question: Which “Activity” value does the source give for “Ala-Lys-Pro-Arg (AKPR; printed: Ala-Lys-Pro-Arg) [Compound 11]” here?
Answer: +

Question: With “Arg-Lys-Val-Ala (RKVA; printed: Arg-Lys-Val-Ala) [Compound 15]” as the compound, how does the “Activity” value read?
Answer: * (* p < 0.05)

Question: Which “Activity” value does the source give for “D-Glu-Pro-Val-Pro-Gln-Ala-Lys ([dE]PVPQAK; also: acetate salt) [Compound 78]” here?
Answer: +

Question: How did the “Activity” value turn out when DPVPQAK [Compound 49] was run?
Answer: * (* p < 0.05)

Question: EAVPQAK [Compound 53] was tested. Which “Activity” value did it give?
Answer: * (* p < 0.05)

Question: EGVPQAK [Compound 76] was tested. Which “Activity” value did it give?
Answer: +

Question: With EPAPQAK [Compound 52] as the compound, how does the “Activity” value read?
Answer: +

Question: For EPVAQAK [Compound 54], which “Activity” value is on record?
Answer: *** (*** p < 0.001)

Question: EPVGQAK [Compound 77] was tested. Which “Activity” value did it give?
Answer: −

Question: How did the “Activity” value turn out when EPVPAAK [Compound 47] was run?
Answer: +

Question: With EPVPEAK [Compound 55] as the compound, how does the “Activity” value read?
Answer: * (* p < 0.05)

Question: For EPVPQAA [Compound 48], which “Activity” value is on record?
Answer: ** (** p < 0.01)

Question: Which “Activity” value does the source give for EPVPQAKP [Compound 58] here?
Answer: +

Question: Which “Activity” value does the source give for EPVPQAKPR [Compound 57] here?
Answer: ** (** p < 0.01)

Question: EPVPQAKPRK [Compound 38] was tested. Which “Activity” value did it give?
Answer: * (* p < 0.05)

Question: EPVPQAKPRKVA [Compound 51] was tested. Which “Activity” value did it give?
Answer: * (* p < 0.05)

Question: How did the “Activity” value turn out when EPVPQAKVPY [Compound 102] was run?
Answer: +

Question: With EPVPQAR [Compound 45] as the compound, how does the “Activity” value read?
Answer: #

Question: With EPVPQA[dK] [Compound 84] as the compound, how does the “Activity” value read?
Answer: +

Question: With EPVPQ[dA]K [Compound 83] as the compound, how does the “Activity” value read?
Answer: * (* p < 0.05)

Question: For EPVP[dQ]AK [Compound 82], which “Activity” value is on record?
Answer: +

Question: With EPV[dP]QAK [Compound 81] as the compound, how does the “Activity” value read?
Answer: +

Question: Which “Activity” value does the source give for EP[dV]PQAK [Compound 80] here?
Answer: +

Question: Which “Activity” value does the source give for E[dP]VPQAK [Compound 79] here?
Answer: +

Question: For GPETAFLREPVPQAK [Compound 96], which “Activity” value is on record?
Answer: *** (*** p < 0.001)

Question: For GPETAFLRKEPVPQAKPRKVAAQ [Compound 95], which “Activity” value is on record?
Answer: ** (** p < 0.01)

Question: For “Gln-Ala-Lys-Pro (QAKP; printed: Gln-Ala-Lys-Pro) [Compound 17]”, which “Activity” value is on record?
Answer: +

Question: Which “Activity” value does the source give for “Glu-Pro-Val-Pro (EPVP; printed: Glu-Pro-Val-Pro) [Compound 9]” here?
Answer: ** (** p < 0.01)

Question: With “Glu-Pro-Val-Pro-Gln (EPVPQ; printed: Glu-Pro-Val-Pro-Gln) [Compound 86]” as the compound, how does the “Activity” value read?
Answer: * (* p < 0.05)

Question: For KAPVPQAKPRKVAAQ [Compound 20], which “Activity” value is on record?
Answer: &

Question: Which “Activity” value does the source give for KEAVPQAKPRKVAAQ [Compound 21] here?
Answer: +

Question: For KEGVGQAKGRKVAAQ [Compound 35], which “Activity” value is on record?
Answer: −

Question: How did the “Activity” value turn out when KEGVGQAKPRKVAAQ [Compound 37] was run?
Answer: +

Question: For KEGVPQAKGRKVAAQ [Compound 36], which “Activity” value is on record?
Answer: +

Question: Which “Activity” value does the source give for KEGVPQAKPRKVAAQ [Compound 31] here?
Answer: * (* p < 0.05)

Question: Which “Activity” value does the source give for KEPAPQAKPRKVAAQ [Compound 25] here?
Answer: ** (** p < 0.01)

Question: How did the “Activity” value turn out when KEPIPQAKPRKVAAQ [Compound 106] was run?
Answer: ** (** p < 0.01)

Question: How did the “Activity” value turn out when KEPVAQAKPRKVAAQ [Compound 22] was run?
Answer: +

Question: With KEPVGQAKGRKVAAQ [Compound 34] as the compound, how does the “Activity” value read?
Answer: * (* p < 0.05)

Question: KEPVGQAKPRKVAAQ [Compound 32] was tested. Which “Activity” value did it give?
Answer: +

Question: How did the “Activity” value turn out when KEPVPAAKPRKVAAQ [Compound 23] was run?
Answer: +

Question: Which “Activity” value does the source give for KEPVPQ [Compound 87] here?
Answer: +

Question: KEPVPQAAPRKVAAQ [Compound 24] was tested. Which “Activity” value did it give?
Answer: +

Question: For KEPVPQAK [Compound 4], which “Activity” value is on record?
Answer: * (* p < 0.05)

Question: KEPVPQAKARKVAAQ [Compound 26] was tested. Which “Activity” value did it give?
Answer: * (* p < 0.05)

Question: Which “Activity” value does the source give for KEPVPQAKGRKVAAQ [Compound 33] here?
Answer: +

Question: Which “Activity” value does the source give for KEPVPQAKPAKVAAQ [Compound 27] here?
Answer: +

Question: How did the “Activity” value turn out when KEPVPQAKPRAVAAQ [Compound 28] was run?
Answer: +

Question: Which “Activity” value does the source give for KEPVPQAKPRKAAAQ [Compound 29] here?
Answer: * (* p < 0.05)

Question: For KEPVPQAKPRKVAAA [Compound 30], which “Activity” value is on record?
Answer: +

Question: How did the “Activity” value turn out when KEPVPQAKPRKVAAE [Compound 103] was run?
Answer: * (* p < 0.05)

Question: How did the “Activity” value turn out when KEPVPQAKPRKVAAN [Compound 104] was run?
Answer: *** (*** p < 0.001)

Question: How did the “Activity” value turn out when KEPVPQAKPRKVAA[dQ] [Compound 75] was run?
Answer: * (* p < 0.05)

Question: For KEPVPQAKPRKVA[dA]Q [Compound 74], which “Activity” value is on record?
Answer: +

Question: KEPVPQAKPRK[dV]AAQ [Compound 72] was tested. Which “Activity” value did it give?
Answer: ** (** p < 0.01)

Question: For KEPVPQAKPR[dK]VAAQ [Compound 71], which “Activity” value is on record?
Answer: +

Question: KEPVPQAKP[dR]KVAAQ [Compound 70] was tested. Which “Activity” value did it give?
Answer: * (* p < 0.05)

Question: For KEPVPQAK[dP]RKVAAQ [Compound 69], which “Activity” value is on record?
Answer: +

Question: Which “Activity” value does the source give for KEPVPQA[dK]PRKVAAQ [Compound 68] here?
Answer: ** (** p < 0.01)

Question: Which “Activity” value does the source give for KEPVPQ[dA]KPRKVAAQ [Compound 67] here?
Answer: * (* p < 0.05)

Question: KEPVP[dQ]AKPRKVAAQ [Compound 66] was tested. Which “Activity” value did it give?
Answer: * (* p < 0.05)

Question: How did the “Activity” value turn out when KEPV[dP]QAKPRKVAAQ [Compound 65] was run?
Answer: * (* p < 0.05)

Question: How did the “Activity” value turn out when KEP[dV]PQAKPRKVAAQ [Compound 64] was run?
Answer: +

Question: KE[dP]VPQAKPRKVAAQ [Compound 63] was tested. Which “Activity” value did it give?
Answer: *** (*** p < 0.001)

Same assay, conditions: 250, 500, 1000 μg/mL; Table 4

Question: For “Arg-Lys-Val-Ala (RKVA; printed: Arg-Lys-Val-Ala) [Compound 15]”, which “Intestinal lumen area compared with the model control group (in words)” value is on record?
Answer: significant statistical differences compared with the model control group

Question: For KEPVPQAK [Compound 4], which “Intestinal lumen area compared with the model control group (in words)” value is on record?
Answer: significant statistical differences compared with the model control group
